# Experimental data: patent US20110301245A1, “(R)-2-(3,4-DIMETHOXYPHENOL)-2-ISOPROPYL-6-AZAHEPTANITRIL FORMULAITONS, ANDTHE USE OF SUCH FORMULATIONS IN THE TREATMENT OF CONDITIONS MEDIATED BY THE SEROTONIN TRANSPORTER” (AGI THERAPEUTICS, PLC, priority 2010, published 2011)
# Several values for one entry are separate records, joined by “and”; a condition that tells them apart may be missing. Identical values can stand only once. Like-named read-outs stand apart in the source and are kept apart here.
# Tests used:
# [1] = tested on: other receptors tested, including calcium channels; assay: Single high concentration test on other receptors (data not included); format: binding; conditions: single high concentration 1×10^−5M
# [2] = molecular target: T1, 5-HT transporter (h) (Homo sapiens, UniProt P31645); assay: 5-HT transporter (h) antagonist radioligand binding assay, human recombinant CHO cells, [3H]imipramine
# T1 construct: expressed in transfected cells; host or cells: CHO cells
# T1 sequence (P31645 whole entry): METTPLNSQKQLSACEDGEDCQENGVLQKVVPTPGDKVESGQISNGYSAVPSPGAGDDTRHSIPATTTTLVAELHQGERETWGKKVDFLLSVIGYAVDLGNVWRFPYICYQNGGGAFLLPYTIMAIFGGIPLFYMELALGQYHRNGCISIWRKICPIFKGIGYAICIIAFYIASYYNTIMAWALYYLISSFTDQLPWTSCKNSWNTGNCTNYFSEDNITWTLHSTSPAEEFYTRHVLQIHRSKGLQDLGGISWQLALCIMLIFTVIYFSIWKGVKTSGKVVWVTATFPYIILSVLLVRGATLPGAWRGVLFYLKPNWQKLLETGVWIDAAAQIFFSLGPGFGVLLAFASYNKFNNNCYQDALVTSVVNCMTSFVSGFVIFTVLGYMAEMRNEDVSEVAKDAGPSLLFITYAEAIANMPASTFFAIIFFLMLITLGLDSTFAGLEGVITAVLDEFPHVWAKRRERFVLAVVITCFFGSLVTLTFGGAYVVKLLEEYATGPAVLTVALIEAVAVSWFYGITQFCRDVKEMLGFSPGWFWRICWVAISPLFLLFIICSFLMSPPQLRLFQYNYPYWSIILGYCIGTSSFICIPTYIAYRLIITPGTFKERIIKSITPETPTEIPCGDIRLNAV
# Text: For its discussion of the assay method, Tatsumi et al. is incorporated herein by reference in its entirety.
# The specific ligand binding to the receptors is defined as the difference between the total binding and the nonspecific binding determined in the presence of an excess of unlabelled ligand.
# The results are expressed as a percent of control specific binding ((measured specific binding/control specific binding)×100) and as a percent inhibition of control specific binding (100−((measured specific binding/control specific binding)×100)) obtained in the presence of (R)-2-(3,4-dimethoxyphenol)-2-isopropyl-6-azaheptanitril.
# (§1) The IC50 values (concentration causing a half-maximal inhibition of control specific binding) and Hill coefficients (nH) were determined by non-linear regression analysis of the competition curves generated with mean replicate values using Hill equation curve fitting (Y=D+[(A−D)/(1+(C/C50)^nH)], where Y=specific binding, D=minimum specific binding, A=maximum specific binding, C=compound concentration, C50=IC50, and nH=slope factor).
# The inhibition constants (Ki) were calculated using the Cheng Prusoff equation (Ki=IC50/(1+(L/KD)), where L=concentration of radioligand in the assay, and KD=affinity of the radioligand for the receptor).
# [3] = tested on: male wistar rats with Monocrotaline-induced PAH; assay: Inhibition of PAH development, monocrotaline-induced pulmonary arterial hypertension; format: in vivo, rat; conditions: Mct 60 mg/kg sc, 5 mg/kg IP daily for 21 days
# Experimental: Experimental pulmonary arterial hypertension (PAH) was induced in male wistar rats (Charles River Laboratories) weighing between 250 and 300 g by subcutaneous injection of 60 mg/kg Monocrotaline (Met) on Day 1. The Mct (Sigma Aldrich) was dissolved in 1N HCl at a concentration of 300 mg/ml as per M. Rey et al., Current Protocols in Pharmacology, 5.56.1-5.56.11, September 2009, which document is incorporated by reference herein in its entirety. Mct was then neutralized by adding 1N NaOH and diluted with sterile distilled water to a final concentration of 20 mg/ml. An injection volume of 3 ml/kg was used to achieve the 60 mg/kg dose.
# A total of 44 rats were injected as follows: 15 rats were injected subcutaneously with Mct (untreated PAH controls), 15 rats were injected subcutaneously with Mct followed by daily IP injection with 5 mg/kg (R)-2-(3,4-dimethoxyphenol)-2-isopropyl-6-azaheptanitril for 21 days (R-D617 treated group), and 14 rats were injected subcutaneously with neutralized solvent having no Mct (non-PAH controls (sham)).
# All animals were then housed (allowed food and water ad lib). The animals were anaesthetized 21 days after injection, and pulmonary arterial pressure was measured and expressed as mean pulmonary arterial pressure (mPAP mmHg). A terminal sample was also obtained and used to obtain terminal drug concentrations. […]
# [4] = molecular target: T2, 5-HT uptake (rat brain synaptosomes) (Rattus norvegicus, UniProt P31652); assay: In vitro 5-HT uptake assay using rat brain synaptosomes; format: biochemical; conditions: for % of Control Values, 1st / % of Control Values, 2nd / % of Control Values, Mean: Table 2-2
# T2 construct: from tissue; host or cells: rat brain synaptosomes
# T2 sequence (P31652 whole entry): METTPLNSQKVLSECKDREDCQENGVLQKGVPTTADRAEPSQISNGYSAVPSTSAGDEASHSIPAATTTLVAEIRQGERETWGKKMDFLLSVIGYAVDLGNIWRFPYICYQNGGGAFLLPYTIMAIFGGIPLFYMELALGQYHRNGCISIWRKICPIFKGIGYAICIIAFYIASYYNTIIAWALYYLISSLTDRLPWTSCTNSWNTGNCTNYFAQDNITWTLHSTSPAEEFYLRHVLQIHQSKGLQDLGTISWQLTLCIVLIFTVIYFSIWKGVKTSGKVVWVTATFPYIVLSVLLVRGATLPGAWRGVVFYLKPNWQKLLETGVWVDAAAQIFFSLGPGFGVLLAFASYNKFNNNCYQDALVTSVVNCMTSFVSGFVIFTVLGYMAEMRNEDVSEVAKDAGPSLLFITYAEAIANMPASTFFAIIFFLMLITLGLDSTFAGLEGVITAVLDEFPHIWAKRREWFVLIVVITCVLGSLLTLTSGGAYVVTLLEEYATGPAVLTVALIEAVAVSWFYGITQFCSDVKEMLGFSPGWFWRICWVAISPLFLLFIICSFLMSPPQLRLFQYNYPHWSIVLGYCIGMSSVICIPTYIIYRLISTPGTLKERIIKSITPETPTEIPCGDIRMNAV
# Experimental: Briefly, the uptake assay was performed using rat brain synaptosomes according to the method generally described in Perovic and Muller, Arzneim-Forsch. […] For its disclosure of the above-noted assay, Perovic and Muller is incorporated herein by reference in its entirety.
# The results are expressed as a percent of control specific activity ((measured specific activity/control specific activity)×100) obtained in the presence of (R)-2-(3,4-dimethoxyphenol)-2-isopropyl-6-azaheptanitril.
# as §1, with “activity)” for “binding)”, “inhibition” for “competition”, “activity,” for “binding,”, “C50=IC50” for “C50=IC50,”
# [5] = Terminal plasma drug concentrations by HPLC in the PAH study; format: in vivo; conditions: rat, 5 mg/kg IP daily for 21 days
# Experimental: All animals were then housed (allowed food and water ad lib). The animals were anaesthetized 21 days after injection, and pulmonary arterial pressure was measured and expressed as mean pulmonary arterial pressure (mPAP mmHg). A terminal sample was also obtained and used to obtain terminal drug concentrations. Following exsanguination, cardiac tissues were excised and used to assess the wet weight of the right cardiac ventricle.
# [6] = % of the potency of verapamil; cited from earlier work
# [7] = molecular target: p-glycoprotein (Homo sapiens, UniProt P08183); conditions: prior non-clinical studies; cited from earlier work
# Sequence of p-glycoprotein (P08183 whole entry): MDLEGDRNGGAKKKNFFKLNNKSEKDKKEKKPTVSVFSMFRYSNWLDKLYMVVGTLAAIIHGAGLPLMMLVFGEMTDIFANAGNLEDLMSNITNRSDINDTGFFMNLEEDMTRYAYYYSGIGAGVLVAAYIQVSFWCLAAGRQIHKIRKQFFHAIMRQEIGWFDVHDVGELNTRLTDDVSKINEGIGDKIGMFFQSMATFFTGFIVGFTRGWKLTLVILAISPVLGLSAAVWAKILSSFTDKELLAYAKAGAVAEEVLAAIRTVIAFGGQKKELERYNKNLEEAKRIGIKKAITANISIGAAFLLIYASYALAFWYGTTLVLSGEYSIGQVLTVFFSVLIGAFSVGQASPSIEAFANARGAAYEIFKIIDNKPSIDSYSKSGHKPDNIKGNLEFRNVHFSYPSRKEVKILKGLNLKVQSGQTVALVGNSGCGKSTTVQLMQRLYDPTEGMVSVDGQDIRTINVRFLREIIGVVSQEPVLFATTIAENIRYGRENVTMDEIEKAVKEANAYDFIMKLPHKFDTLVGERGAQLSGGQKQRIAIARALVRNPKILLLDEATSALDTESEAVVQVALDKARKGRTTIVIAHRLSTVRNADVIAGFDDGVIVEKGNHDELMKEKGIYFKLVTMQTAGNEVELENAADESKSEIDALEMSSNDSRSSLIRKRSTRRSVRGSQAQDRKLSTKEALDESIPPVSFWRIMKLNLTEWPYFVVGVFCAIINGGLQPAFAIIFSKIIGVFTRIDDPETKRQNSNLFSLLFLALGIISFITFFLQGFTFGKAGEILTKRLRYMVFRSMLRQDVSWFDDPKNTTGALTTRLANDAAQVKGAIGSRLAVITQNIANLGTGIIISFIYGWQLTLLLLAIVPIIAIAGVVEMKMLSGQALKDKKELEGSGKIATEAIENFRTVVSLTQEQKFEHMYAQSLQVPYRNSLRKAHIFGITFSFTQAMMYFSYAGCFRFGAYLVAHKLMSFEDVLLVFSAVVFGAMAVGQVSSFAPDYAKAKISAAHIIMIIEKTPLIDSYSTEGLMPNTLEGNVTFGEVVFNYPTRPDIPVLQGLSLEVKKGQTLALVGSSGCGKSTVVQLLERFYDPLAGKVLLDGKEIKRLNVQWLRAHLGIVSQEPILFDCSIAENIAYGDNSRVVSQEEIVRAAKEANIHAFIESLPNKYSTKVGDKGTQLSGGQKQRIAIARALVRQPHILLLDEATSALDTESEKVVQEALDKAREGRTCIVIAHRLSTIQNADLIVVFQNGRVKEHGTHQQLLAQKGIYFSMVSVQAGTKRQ
# [8] = molecular target: HERG (Homo sapiens, UniProt Q12809); conditions: prior non-clinical studies; cited from earlier work
# Sequence of HERG (Q12809 whole entry): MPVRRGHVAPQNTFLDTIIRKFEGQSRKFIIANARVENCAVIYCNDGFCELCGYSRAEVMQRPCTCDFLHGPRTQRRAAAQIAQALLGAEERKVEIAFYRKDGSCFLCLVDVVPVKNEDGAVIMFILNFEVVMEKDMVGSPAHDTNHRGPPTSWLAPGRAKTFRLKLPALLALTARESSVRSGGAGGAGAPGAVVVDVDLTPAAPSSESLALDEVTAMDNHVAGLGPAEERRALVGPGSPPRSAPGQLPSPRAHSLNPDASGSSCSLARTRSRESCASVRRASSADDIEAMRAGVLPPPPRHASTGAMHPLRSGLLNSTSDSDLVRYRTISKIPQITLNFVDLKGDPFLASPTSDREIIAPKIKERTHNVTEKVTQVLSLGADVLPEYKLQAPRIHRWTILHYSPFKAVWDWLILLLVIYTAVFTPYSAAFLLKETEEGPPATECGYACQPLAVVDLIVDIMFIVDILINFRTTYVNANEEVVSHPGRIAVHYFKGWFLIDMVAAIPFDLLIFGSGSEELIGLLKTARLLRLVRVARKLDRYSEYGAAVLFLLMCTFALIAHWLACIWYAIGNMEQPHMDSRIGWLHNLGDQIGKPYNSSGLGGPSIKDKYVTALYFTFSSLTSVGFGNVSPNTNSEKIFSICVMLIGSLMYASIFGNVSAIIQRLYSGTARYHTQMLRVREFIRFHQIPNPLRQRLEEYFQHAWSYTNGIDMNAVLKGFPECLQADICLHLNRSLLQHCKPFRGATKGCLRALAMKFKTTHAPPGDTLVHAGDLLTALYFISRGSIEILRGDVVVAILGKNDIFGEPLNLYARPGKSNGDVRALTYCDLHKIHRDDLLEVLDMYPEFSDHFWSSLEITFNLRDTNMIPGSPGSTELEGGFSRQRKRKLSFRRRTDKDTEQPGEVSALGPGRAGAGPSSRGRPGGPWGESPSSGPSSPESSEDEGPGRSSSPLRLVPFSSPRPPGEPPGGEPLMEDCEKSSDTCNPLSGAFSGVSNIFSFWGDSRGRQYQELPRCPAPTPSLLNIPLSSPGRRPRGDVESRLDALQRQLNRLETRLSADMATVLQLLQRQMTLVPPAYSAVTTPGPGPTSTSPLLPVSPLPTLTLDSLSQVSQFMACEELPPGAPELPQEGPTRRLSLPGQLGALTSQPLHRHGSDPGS
# [9] = tested on: CYP; conditions: prior non-clinical studies; cited from earlier work
compound,measurement,setting,value
"CNCCC[C@](C#N)(c1ccc(OC)c(OC)c1)C(C)C [(R)-2-(3,4-dimethoxyphenol)-2-isopropyl-6-azaheptanitril]",inhibition at the majority of the other receptors tested,[1],< 75%
same,% Inhibition of Control Specific Binding,"[2]; Table 1-1, test concentration 1.0E−05 M",100%
same,"% of Control Specific Binding, 1st","[2]; Table 1-2, 1.0E−05 M",−0.6%
same,"% of Control Specific Binding, 2nd","[2]; Table 1-2, 1.0E−05 M",0.8%
same,"% of Control Specific Binding, Mean","[2]; Table 1-2, 1.0E−05 M",0.1%
same,nH (Hill coefficient),[2]; Table 1-4,1.0
same,Ki,"[2]; Table 1-4, Cheng Prusoff",22 nM
same,"% of Control Specific Binding, 1st","[2]; Table 1-5, 1.0E−05 M",0.5%
same,"% of Control Specific Binding, 2nd","[2]; Table 1-5, 1.0E−05 M",0.2%
same,"% of Control Specific Binding, Mean","[2]; Table 1-5, 1.0E−05 M",0.3%
same,"% of Control Specific Binding, 1st","[2]; Table 1-5, 1.0E−06 M",5.9%
same,"% of Control Specific Binding, 2nd","[2]; Table 1-5, 1.0E−06 M",3.7%
same,"% of Control Specific Binding, Mean","[2]; Table 1-5, 1.0E−06 M",4.8%
same,"% of Control Specific Binding, 1st","[2]; Table 1-5, 1.0E−07 M",36.5%
same,"% of Control Specific Binding, 2nd","[2]; Table 1-5, 1.0E−07 M",32.5%
same,"% of Control Specific Binding, Mean","[2]; Table 1-5, 1.0E−07 M",34.5%
same,"% of Control Specific Binding, 1st","[2]; Table 1-5, 1.0E−08 M",83.3%
same,"% of Control Specific Binding, 2nd","[2]; Table 1-5, 1.0E−08 M",84.8%
same,"% of Control Specific Binding, Mean","[2]; Table 1-5, 1.0E−08 M",84.0%
same,"% of Control Specific Binding, 1st","[2]; Table 1-5, 3.0E−07 M",15.3%
same,"% of Control Specific Binding, 2nd","[2]; Table 1-5, 3.0E−07 M",13.1%
same,"% of Control Specific Binding, Mean","[2]; Table 1-5, 3.0E−07 M",14.2%
same,"% of Control Specific Binding, 1st","[2]; Table 1-5, 3.0E−08 M",66.6%
same,"% of Control Specific Binding, 2nd","[2]; Table 1-5, 3.0E−08 M",58.0%
same,"% of Control Specific Binding, Mean","[2]; Table 1-5, 3.0E−08 M",62.3%
same,"% of Control Specific Binding, 1st","[2]; Table 1-5, 3.0E−09 M",101.5%
same,"% of Control Specific Binding, 2nd","[2]; Table 1-5, 3.0E−09 M",88.4%
same,"% of Control Specific Binding, Mean","[2]; Table 1-5, 3.0E−09 M",94.9%
same,"% of Control Specific Binding, 1st","[2]; Table 1-5, 3.0E−10 M",104.1%
same,"% of Control Specific Binding, 2nd","[2]; Table 1-5, 3.0E−10 M",102.0%
same,"% of Control Specific Binding, Mean","[2]; Table 1-5, 3.0E−10 M",103.1%
same,IC50,[2]; read-out: IC50 for inhibition of binding at the serotonin transporter,47 nM
same,inhibition of the serotonin transporter,[2]; single high concentration 1×10^−5M,100%
same,mPAP (Mean +/− SEM),"[3]; measured 21 days after injection, untreated PAH control 36.0, sham 14.7",30.0 +/− 2.5 mmHg
same,Right Ventricle Weight (Mean +/− SEM),"[3]; wet weight, untreated PAH control 317.9, sham 167.4",288.7 +/− 13.4
same,IC50,"[4]; Table 2-1, 5-HT uptake",240 nM
same,"% of Control Values, 1st",[4]; 1.0E−05 M,1.0%
same,"% of Control Values, 2nd",[4]; 1.0E−05 M,5.2%
same,"% of Control Values, Mean",[4]; 1.0E−05 M,3.1%
same,"% of Control Values, 1st",[4]; 1.0E−06 M,22.1%
same,"% of Control Values, 2nd",[4]; 1.0E−06 M,21.1%
same,"% of Control Values, Mean",[4]; 1.0E−06 M,21.6%
same,"% of Control Values, 1st",[4]; 1.0E−07 M,79.8%
same,"% of Control Values, 2nd",[4]; 1.0E−07 M,81.9%
same,"% of Control Values, Mean",[4]; 1.0E−07 M,80.8%
same,"% of Control Values, 1st",[4]; 1.0E−08 M,101.7%
same,"% of Control Values, 2nd",[4]; 1.0E−08 M,94.0%
same,"% of Control Values, Mean",[4]; 1.0E−08 M,97.9%
same,"% of Control Values, 1st",[4]; 3.0E−07 M,47.8%
same,"% of Control Values, 2nd",[4]; 3.0E−07 M,44.9%
same,"% of Control Values, Mean",[4]; 3.0E−07 M,46.3%
same,"% of Control Values, 1st",[4]; 3.0E−08 M,108.1%
same,"% of Control Values, 2nd",[4]; 3.0E−08 M,82.8%
same,"% of Control Values, Mean",[4]; 3.0E−08 M,95.4%
same,"% of Control Values, 1st",[4]; 3.0E−09 M,100.2%
same,"% of Control Values, 2nd",[4]; 3.0E−09 M,113.4%
same,"% of Control Values, Mean",[4]; 3.0E−09 M,106.8%
same,"% of Control Values, 1st",[4]; 3.0E−10 M,113.5%
same,"% of Control Values, 2nd",[4]; 3.0E−10 M,113.3%
same,"% of Control Values, Mean",[4]; 3.0E−10 M,113.4%
same,"mean terminal plasma concentration of (R)-2-(3,4-dimethoxyphenol)-2-isopropyl-6-azaheptanitril",[5]; R-D617 treated group,18.5 ng/mL
same,terminal plasma concentration of R-verapamil after R-D617 treatment,[5]; lower limit of quantification 1 ng/ml,< 1 ng/mL
same,R-verapamil measured in terminal plasma of the R-D617 treated group,[5]; result in words,no quantifiable R-verapamil
COc1ccc(CCNCCCC(C#N)(c2ccc(OC)c(OC)c2)C(C)C)cc1OC (stereo not drawn) [nor-verapamil],cardiovascular potency compared with verapamil,[6],21.9%
"CNCCCC(C#N)(c1ccc(OC)c(OC)c1)C(C)C [D-617, 2-(3,4-dimethoxyphenol)-2-isopropyl-6-azaheptanitril]",p-glycoprotein transport: substrate / inhibitor,[7],"substrate for, but not an inhibitor of"
same,block of HERG-induced currents,[8],does not block
same,CYP-mediated metabolism: substrate / inhibitor,[9],substrate for but not a potent inhibitor of
same,cardiovascular potency compared with verapamil,[6],2.6%
"CN(C)CCCN1c2ccccc2CCc2ccccc21 [imipramine, reference compound]",nH (Hill coefficient),[2],0.9 and 1.2
